Results reported in patent publication US20250025438A1, “Derivative of aspartic acid and use thereof in treatment of metabolic diseases such as hepatic fibrosis and non-alcoholic hepatitis” (SHENZHEN JINGTAI TECHNOLOGY CO., LTD., priority 2021, published 2025).
Where a name gives a salt, the structure may show the parent alone.

Legend:
NS3TP1 = test: Regulation of NS3TP1 in semi-activated LX2 cells, qPCR; assay type: cell-based; settings: LX-2 cells, 48 hours, Q-PCR, vs control group
Method: Test compounds were added to the LX-2 cells respectively, and total RNA in the cells was extracted 48 hours later. This experiment was performed strictly in accordance with the instructions of the Total RNA Kit. The steps were as follows (note: this experiment was performed on ice throughout the entire process, and special RNase-free tips were used throughout the entire process): • 1) The 12-well cell culture plate was taken out from the incubator, the cell culture medium was discarded, the cells were washed twice with 1 mL of 1×PBS, and a negative pressure suction device was used to fully remove PBS; • 2) 350 μL of TRK Lysis Buffer mixture/well was prepared as needed (mixture preparation method: 1 mL of TRKLysis Buffer+20 μL of β-mercaptoethanol), vortexed and mixed well. 350 μL was added to each well of the 12-well cell culture plate, and allowed to stand at room temperature for 5 minutes to fully lyse the cells; • 3) 70% ethanol/well was prepared as needed, vortexed and mixed well. 350 μL was added to each well of the 12-well cell culture plate, mixed well by shaking, and transferred to the spin column (spin column+collection tube were assembled); • 4) Centrifugation was performed at 4° C., 12000 g for 60 sec. The waste liquid was discarded after centrifugation, while the spin column was kept; • 5) 500 μL of RNA Wash Buffer I was added, centrifuged at 4° C., 12000 g for 60 sec, the waste liquid was discarded after centrifugation, and the collection column was kept; • 6) 500 μL of RNA Wash Buffer II (confirmed that ethanol had been added) was added, centrifuged at 4° C., 12000 g for 60 sec, the waste liquid was discarded after centrifugation, and the collection column was kept; • 7) step 6) was repeated once again, centrifugation was performed at 4° C., 12000 g for 90 sec, the waste liquid was discarded after centrifugation, and the collection column was kept; • 8) Centrifugation was performed at 4° C., 12000 g for 120 sec to ensure that the spin column was fully dried; • 9) The dried spin column was inserted into a new 1.5 mL EP tube, and 30 μL of DEPC water was added to the membrane in the center of the spin column. It should be careful not to touch the EP tube cover in this step. It was allowed to stand at room temperature for 5 minutes to ensure that the RNA was fully dissolved in DEPC water. Centrifugation was performed at 4° C., 12000 g for 60 sec, and the EP tube was kept; • 10) NanoDrop ultra-micro-volume spectrophotometer was used to detect RNA concentration;
5.2 Reverse transcription of RNA into cDNA: According to the instructions of PrimeScript™ RT reagent Kit (Perfect Real Time), the specific experimental steps were as follows:
5.3 Q-PCR detection of target gene expression: According to the instructions of Power SYBR® Green PCR Master Mix, the specific operations were as follows:
After the reaction was completed, the amplification curve and dissolution curve of Q-PCR were confirmed, and the relative quantification method ([…]) was used to perform data analysis on the experimental results.
LX2 cells were passaged and plated normally. […] After 48 hours, the cells were collected, total RNA was extracted, and the expression of NS3TP1 gene was detected using Q-PCR method.

[1] = tested on: carbon tetrachloride-induced liver fibrosis; test: Carbon tetrachloride-induced liver fibrosis model in mice, Masson staining; assay type: in vivo, C57BL/6 wild-type mice; settings: CCl4 mice
Method: Long-term intraperitoneal injection of carbon tetrachloride (CCl4) induced reversible liver fibrosis, which was often used to screen and evaluate anti-hepatic fibrosis drugs. C57BL/6 wild-type mice were randomly divided into control group, carbon tetrachloride group and treatment group. The treatments were as follows:
Mice in the carbon tetrachloride group: The animals were intraperitoneally injected with carbon tetrachloride in a total amount of 0.5 μL/g, diluted with corn oil to 10 μL/g, 3 times/week. After 4 weeks of modeling, the carbon tetrachloride group was randomly divided into groups, plus the negative control group: • (1) Mice in the negative control group: The animals were intraperitoneally injected with corn oil solution, 10 μL/g, 3 times/week; at the same time, 200 μL of drinking water was administered by gavage. • (2) Mice in the carbon tetrachloride group: The animals were intraperitoneally injected with carbon tetrachloride in a total amount of 0.5 μL/g, diluted with corn oil to 10 μL/g, 3 times/week; 200 μL of normal saline was administered by gavage. • (3) Mice in the aspartic acid group: The animals were intraperitoneally injected with carbon tetrachloride in a total amount of 0.5 μL/g, diluted with corn oil to 10 μL/g, 3 times/week; 30 mg/kg aspartic acid was administered by gavage. • (4) Mice in the treatment group: The animals were intraperitoneally injected with carbon tetrachloride in a total amount of 0.5 μL/g, diluted with corn oil to 10 μL/g, 3 times/week; different doses of the compounds of the present invention were administered by gavage.
The animals were treated for 4 weeks, and blood was collected from the eyeballs 48 hours after the last injection of carbon tetrachloride. About 1 mL of whole blood per animal was collected in an anticoagulant tube, and immediately placed on ice and allowed to stand for 1 hour. Centrifugation was performed at 4° C., 3000 rpm for 15 min. About 0.4 mL of the supernatant was taken and added into an EP tube, in which it should be carefully avoided to pipet the lower layer liquid, and then it was stored in a −80° C. refrigerator.
It should be noted to use new paraffin when renewed; • (5 Embedding: Melted paraffin (60° C.) was added into a small iron trough, the paraffin-soaked tissue was taken and placed therein, the embedding box at the side with label was buckled, and the melted paraffin was added again. It should be noted that air bubbles should be removed during the operation process; • (6 The paraffin-embedded tissue was placed on an ice table of an automatic embedding machine. After the paraffin solidified, it was placed in a −20° C. refrigerator for further cooling.
• (1 The wax block with embedded tissue was placed at the corresponding position of a microtome; • (2 The slice thickness was adjusted to the thickness required for the experiment. Generally, 3 to 4 μm should be used for slicing; • (3 6 to 8 Consecutive tissue sections were gently placed and fully stretched in a 55° C. water bath expander; • (4 The continuous tissue sections were gently separated by tweezers; • (5 A wax section that was completely stretched and had no wrinkles in the tissue was selected, and taken out with an adhesive slide so that the section was attached to the slide;
Masson staining is one of the classic and authoritative staining methods for collagen fiber staining. Collagen fibers appear […].

collagen I = test: Semi-activated LX2 cells, Western blot: collagen I protein; assay type: cell-based; settings: 50-400 μM, 48 hours, FIG. 1, vs 50 μM aspartic acid
[2] = 20 mg/kg/d by gavage, 4 weeks, vs untreated group and aspartic acid group (30 mg/kg/d), FIG. 6

Row | Compound | Up-regulation of NS3TP1 (NS3TP1; test concentration 10 mM) | collagen deposition in the mouse liver tissue (Masson) [1, 2] | Up-regulation of NS3TP1 (NS3TP1; 200 µM compound) | inhibitory effect on collagen I protein expression as compared to ASP (collagen I) | collagen deposition in the mouse liver tissue (Masson) ([1]; 40 mg/kg/d by gavage, 4 weeks, vs untreated group and aspartic acid group (30 mg/kg/d), FIG. 6) | collagen deposition in the mouse liver tissue (Masson) ([1]; 10 mg/kg/bid, 50 mg/kg/bid, 150 mg/kg/bid, vs untreated group, FIG. 7) | collagen deposition in the mouse liver tissue (Masson) ([1]; 25 mg/kg/d by gavage, 4 weeks, vs untreated group and aspartic acid group (30 mg/kg/d), FIG. 6)
1 | COC(=O)[C@@H](N)CC(=O)O [Compound 4] | B (B represented that the up-regulation was 20~40%) | reduced | – | – | – | – | –
2 | COC(=O)C[C@H](N)C(=O)OCOC(=O)[C@@H](N)CC(=O)OC [Compound 54, 4-dimethyl O′1,01-methylene (2S,2'S)-bis (2-aminosuccinate) hydrochloride] | – | – | A (A represented that the up-regulation was 40% or above) | stronger inhibitory effects | reduced | – | –
3 | N[C@@H](CCC(=O)O)C(=O)O [Compound 47] | – | reduced | – | stronger inhibitory effects | – | – | –
4 | COC(=O)C[C@H](N)C(=O)O [Compound 6] | – | – | A (A represented that the up-regulation was 40% or above) | stronger inhibitory effects | – | decreased | reduced
